Data: PubChem BioAssay AID248 (DTP/NCI, 2004)
“And” between values parts separate entries of the source, which are not always exact repeats. Equal entries are not always repeated. Toxic doses and inconclusive results are not listed. Rule as the data show it: active = T/C of 150% or more; inactive = T/C below 125%.

Tested on: L1210 leukemia ip in BDF1 mice, survival T/C
Assay: NCI In Vivo Anticancer Drug Screen. Data for tumor model L1210 Leukemia (intraperitoneal) in B6D2F1 (BDF1) mice
Settings: endpoint: mean survival time, higher = longer survival
How it was run: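 In this screen, tumor-bearing mice given compound are compared to those given vehicle, and their survival values are reported as a treated-to-control quotient.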

[1] = dose: 100.0 mg/kg/injection, schedule: Q01DX009 (ip), vehicle: Klucel (hydroxypropylcellulose) (HPC)
[2] = dose: 200.0 mg/kg/injection, schedule: Q01DX009 (ip), vehicle: Klucel (hydroxypropylcellulose) (HPC)
[3] = dose: 100.0 mg/kg/injection, schedule: Q04DX003 (ip), vehicle: saline
[4] = dose: 100.0 mg/kg/injection, schedule: Q01DX001 (ip), vehicle: saline
[5] = dose: 200.0 mg/kg/injection, schedule: Q01DX001 (ip), vehicle: saline
[6] = dose: 25.0 mg/kg/injection, schedule: Q04DX003 (ip), vehicle: saline
[7] = dose: 50.0 mg/kg/injection, schedule: Q04DX003 (ip), vehicle: saline
[8] = dose: 50.0 mg/kg/injection, schedule: Q01DX009 (ip), vehicle: saline with Tween-80
[9] = dose: 100.0 mg/kg/injection, schedule: Q01DX009 (ip), vehicle: saline with Tween-80
[10] = dose: 100.0 mg/kg/injection, schedule: Q04DX003 (ip), vehicle: saline with Tween-80
[11] = dose: 200.0 mg/kg/injection, schedule: Q01DX009 (ip), vehicle: saline with Tween-80
[12] = dose: 200.0 mg/kg/injection, schedule: Q04DX003 (ip), vehicle: saline with Tween-80

Measured: T/C

Clc1nnc(Cl)c(Cl)c1Cl
inactive: dose: 0.31 mg/kg/injection, schedule: Q01DX009 (ip), vehicle: saline 101 % of control | dose: 0.5 mg/kg/injection, schedule: Q01DX Z (ip), vehicle: carboxymethylcellulose (CMC) 98 % of control | dose: 0.62 mg/kg/injection, schedule: Q01DX009 (ip), vehicle: saline 98 % of control | dose: 0.62 mg/kg/injection, schedule: Q04DX003 (ip), vehicle: acetone 96 % of control | dose: 0.75 mg/kg/injection, schedule: Q01DX009 (ip), vehicle: saline 104 % of control | dose: 1.0 mg/kg/injection, schedule: Q01DX Z (ip), vehicle: carboxymethylcellulose (CMC) 96 % of control | dose: 1.25 mg/kg/injection, schedule: Q01DX009 (ip), vehicle: saline 96 % of control | dose: 1.25 mg/kg/injection, schedule: Q04DX003 (ip), vehicle: acetone 89 % of control | dose: 1.5 mg/kg/injection, schedule: Q01DX009 (ip), vehicle: saline 97 % of control | dose: 1.8 mg/kg/injection, schedule: Q01DX009 (ip), vehicle: saline with Tween-80 102 % of control | dose: 2.0 mg/kg/injection, schedule: Q01DX Z (ip), vehicle: carboxymethylcellulose (CMC) 93 % of control | dose: 2.5 mg/kg/injection, schedule: Q01DX001 (ip), vehicle: saline 97 % of control | dose: 2.8 mg/kg/injection, schedule: Q01DX009 (ip), vehicle: saline with Tween-80 108 % of control | dose: 3.0 mg/kg/injection, schedule: Q01DX009 (ip), vehicle: saline 97 % of control | dose: 4.0 mg/kg/injection, schedule: Q01DX015 (ip), vehicle: carboxymethylcellulose (CMC) 96 % of control | dose: 4.0 mg/kg/injection, schedule: Q01DX Z (ip), vehicle: carboxymethylcellulose (CMC) 93 % of control | dose: 4.2 mg/kg/injection, schedule: Q01DX009 (ip), vehicle: saline with Tween-80 94 % of control | dose: 8.0 mg/kg/injection, schedule: Q01DX015 (ip), vehicle: carboxymethylcellulose (CMC) 93 % of control

COc1ccc(CCNC(=S)NC(=O)c2ccc(Cl)c(Cl)c2)cc1OC
inactive: [1] 91 % of control | [2] 86 % of control | dose: 400.0 mg/kg/injection, schedule: Q01DX009 (ip), vehicle: Klucel (hydroxypropylcellulose) (HPC) 93 % of control

Clc1ccccc1Nc1c2ccccc2nc2ccccc12
inactive: [3] 100 % of control | dose: 200.0 mg/kg/injection, schedule: Q04DX003 (ip), vehicle: saline 102 % of control | dose: 400.0 mg/kg/injection, schedule: Q04DX003 (ip), vehicle: saline 96 % of control

N=C(N=C(N)N)N(Cc1ccccc1)Cc1ccccc1
inactive: dose: 6.25 mg/kg/injection, schedule: Q01DX009 (ip), vehicle: water 103 % of control | dose: 6.25 mg/kg/injection, schedule: Q04DX003 (ip), vehicle: water 97 % of control | dose: 12.5 mg/kg/injection, schedule: Q01DX001 (ip), vehicle: water 107 % of control | dose: 12.5 mg/kg/injection, schedule: Q01DX009 (ip), vehicle: water 101 % of control | dose: 12.5 mg/kg/injection, schedule: Q04DX003 (ip), vehicle: water 103 % of control | dose: 25.0 mg/kg/injection, schedule: Q01DX001 (ip), vehicle: water 100 % of control | dose: 25.0 mg/kg/injection, schedule: Q01DX009 (ip), vehicle: water 101 % of control | dose: 25.0 mg/kg/injection, schedule: Q04DX003 (ip), vehicle: water 96 % of control

CC(C)C(N)C(=O)OC(=O)C(N)CCCCN (stereo not drawn)
inactive: dose: 12.5 mg/kg/injection, schedule: Q04DX002 (ip), vehicle: saline 107 % of control | dose: 25.0 mg/kg/injection, schedule: Q04DX002 (ip), vehicle: saline 104 % of control | dose: 50.0 mg/kg/injection, schedule: Q04DX002 (ip), vehicle: saline 101 % of control | [4] 108 % of control | [5] 101 % of control | dose: 400.0 mg/kg/injection, schedule: Q01DX001 (ip), vehicle: saline 98 % of control

CN=NCc1ccccc1
inactive: dose: 90.0 mg/kg/injection, schedule: Q04DX002 (ip), vehicle: saline with Tween-80 106 % of control | dose: 100.0 mg/kg/injection, schedule: Q04DX002 (ip), vehicle: saline with Tween-80 108 % of control and 122 % of control | dose: 133.0 mg/kg/injection, schedule: Q04DX002 (ip), vehicle: saline with Tween-80 120 % of control | dose: 200.0 mg/kg/injection, schedule: Q04DX002 (ip), vehicle: saline with Tween-80 106 % of control and 111 % of control | dose: 300.0 mg/kg/injection, schedule: Q04DX002 (ip), vehicle: saline with Tween-80 117 % of control

CC(C)OCc1c(N)nc(=S)[nH]c1C(=O)O
inactive: dose: 12.0 mg/kg/injection, schedule: Q01DX009 (ip), vehicle: saline 90 % of control | dose: 25.0 mg/kg/injection, schedule: Q01DX009 (ip), vehicle: saline 97 % of control | [6] 106 % of control | dose: 50.0 mg/kg/injection, schedule: Q01DX009 (ip), vehicle: saline 103 % of control and 92 % of control | [7] 97 % of control | [3] 102 % of control and 90 % of control

N#CC(C#N)=C(C#N)C#N
inactive: dose: 3.13 mg/kg/injection, schedule: Q01DX009 (ip), vehicle: Klucel (hydroxypropylcellulose) (HPC) 95 % of control | dose: 6.25 mg/kg/injection, schedule: Q01DX009 (ip), vehicle: Klucel (hydroxypropylcellulose) (HPC) 91 % of control

CC(=O)NS(=O)(=O)c1ccc(NC(=O)c2ccccc2C(=O)O)cc1
inactive: [8] 102 % of control | [9] 100 % of control | [10] 95 % of control | [11] 96 % of control | [12] 93 % of control

NNC(=O)C1CC12CC2 (stereo not drawn)
inactive: [4] 106 % of control and 109 % of control | [5] 103 % of control

CC12CCC(CC1C(=O)O)C2 (stereo not drawn)
inactive: [10] 96 % of control | [12] 94 % of control | dose: 400.0 mg/kg/injection, schedule: Q04DX003 (ip), vehicle: saline with Tween-80 98 % of control

COc1ccc2c(c1)CC[C@@H]1[C@@H]2CC[C@@]2(C)[C@H]1CC[C@@]2(O)C(F)=C(F)F
inactive: dose: 38.0 mg/kg/injection, schedule: Q01DX015 (sc), vehicle: steriod suspending solution 96 % of control | dose: 50.0 mg/kg/injection, schedule: Q01DX009 (ip), vehicle: Klucel (hydroxypropylcellulose) (HPC) 116 % of control | dose: 75.0 mg/kg/injection, schedule: Q01DX015 (sc), vehicle: steriod suspending solution 88 % of control | dose: 100.0 mg/kg/injection, schedule: Q01DX001 (sc), vehicle: steriod suspending solution 92 % of control | [1] 107 % of control | dose: 150.0 mg/kg/injection, schedule: Q01DX015 (sc), vehicle: steriod suspending solution 94 % of control | dose: 200.0 mg/kg/injection, schedule: Q01DX001 (sc), vehicle: steriod suspending solution 100 % of control | [2] 100 % of control | dose: 300.0 mg/kg/injection, schedule: Q01DX009 (ip), vehicle: Klucel (hydroxypropylcellulose) (HPC) 104 % of control | dose: 300.0 mg/kg/injection, schedule: Q01DX015 (sc), vehicle: steriod suspending solution 94 % of control | dose: 400.0 mg/kg/injection, schedule: Q01DX001 (sc), vehicle: steriod suspending solution 97 % of control | dose: 600.0 mg/kg/injection, schedule: Q01DX015 (sc), vehicle: steriod suspending solution 94 % of control

CCOC(=O)C(NNc1ccccc1)C(c1ccccc1)[P+](c1ccccc1)(c1ccccc1)c1ccccc1 (stereo not drawn)
inactive: dose: 75.0 mg/kg/injection, schedule: Q01DX001 (ip), vehicle: carboxymethylcellulose (CMC) 101 % of control

COc1ccc2nc3cc(Cl)ccc3c(NCCCCN(C)C)c2c1
inactive: dose: 6.0 mg/kg/injection, schedule: Q04DX003 (ip), vehicle: saline 97 % of control | dose: 12.5 mg/kg/injection, schedule: Q04DX003 (ip), vehicle: saline 99 % of control

O=C(O)/C=C/C(=O)OCCBr
inactive: [6] 92 % of control | [8] 100 % of control | [7] 95 % of control | [9] 115 % of control | [3] 90 % of control | [11] 97 % of control

N#CC(c1ccccc1)c1ccccc1
inactive: dose: 100.0 mg/kg/injection, schedule: Q01DX001 (ip), vehicle: other 97 % of control | dose: 200.0 mg/kg/injection, schedule: Q01DX001 (ip), vehicle: other 90 % of control | dose: 400.0 mg/kg/injection, schedule: Q01DX001 (ip), vehicle: other 95 % of control

C[C@]12CCCC[C@@H]1CC[C@@H]1[C@@H]2[C@@H](O)C[C@]2(C)[C@@H](O)CC[C@@H]12
inactive: [8] 98 % of control | [9] 90 % of control | [11] 95 % of control
